The structures appear in SMILES notation.

Chain of human sphingosine-1-phosphate receptor 1 (S1P1) (P21453 whole entry): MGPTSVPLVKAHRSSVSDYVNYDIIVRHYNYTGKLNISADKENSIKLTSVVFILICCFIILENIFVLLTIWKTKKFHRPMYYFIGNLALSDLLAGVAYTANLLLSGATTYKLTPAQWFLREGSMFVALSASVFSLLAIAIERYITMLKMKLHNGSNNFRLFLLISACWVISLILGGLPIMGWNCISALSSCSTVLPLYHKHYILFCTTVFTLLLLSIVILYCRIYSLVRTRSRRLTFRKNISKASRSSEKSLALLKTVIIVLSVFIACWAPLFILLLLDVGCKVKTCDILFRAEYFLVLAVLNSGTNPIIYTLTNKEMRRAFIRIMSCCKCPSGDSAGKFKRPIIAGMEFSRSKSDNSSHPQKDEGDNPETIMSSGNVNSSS

The target of the test is human sphingosine-1-phosphate receptor 1 (S1P1) (Homo sapiens, UniProt P21453). Kind of test: Inhibition of cAMP production (HTRF cAMP HiRange), S1P1 CHO-K1 cells. Type of test: cell-based. The note with it: inhibition of cAMP production; potency; read-out: hS1P1 CAMP pEC50 (converted). As to the method:
Stable clonal Chinese hamster ovary K1 (CHO-K1) cells co-expressing EA-β-arrestin2 and the human sphingosine-1-phosphate receptor 1 (NM_001400, S1P1) with a C-terminal Prolink™ tag were purchased from DiscoverX corporation (Cat #: 93-0207C2).
Cell lines were cultured in AssayComplete™ Media 6 (DiscoverX Corporation, Cat #: 920018GF2) at 37° C. and 5% CO2 in a humidified CO2 and temperature-controlled incubator. To begin assay plating, cells were washed with Dulbecco's phosphate buffered saline (CellGro, Cat #: 21-031-CV) and lifted from the culturing flask by incubation (37° C., 5 min) with CellStripper (Cellgro, Cat #: 25-056-CI). […] Plated cells were incubated overnight at 37° C. and 5% CO2 in a humidified CO2 and temperature-controlled incubator.
Agonist-promoted G-protein responses were determined by measuring changes in intracellular cAMP using the HTRF® cAMP HiRange kit (CisBio, Cat #: 62AM6PEJ) based on time-resolved fluorescence resonance energy transfer (TR-FRET) technology. […] Following a 30-minute incubation at 37° C. and 5% CO2 in a humidified CO2 and temperature-controlled incubator, the components of the cAMP HiRange kit were added as per the manufacturer's instructions. After an hour incubation at room temperature, plates were analyzed by a BMG PheraStar microplate reader.
These values are normalized to fingolimod, a known agonist of the sphingosine-1-phosphate 1 receptor.
(Changes in cAMP serve as a functional read-out for many G protein-coupled receptors.)
Consider `COc1ccc(-c2noc(-c3ccc4c(c3)nnn4C(C)C)n2)c2ccccc12` [Compound 129, 5-[3-(4-methoxy-naphthalen-1-yl)-1,2,4-oxadiazol-5-yl]-1-(propan-2-yl)-1H-1,2,3-benzotriazole], for which the EC50 was more than 316 nM.
Under `COc1cccc(-c2nc(-c3ccc4c(c3)nnn4C3CCCC3)no2)c1` [Compound 130, 3-(1-cyclopentyl-1H-benzo[d][1,2,3]triazol-5-yl)-5-(3-methoxy-phenyl)-1,2,4-oxadiazole] stands more than 316 nM; under `CC(C)n1nnc2cc(-c3noc(-c4ccc(COc5ccccc5)cc4)n3)ccc21` [Compound 131, 3-(1-isopropyl-1H-benzo[d][1,2,3]triazol-5-yl)-5-(4-(phenoxy-methyl)phenyl)-1,2,4-oxadiazole], more than 316 nM; under `CC(C)n1nnc2cc(-c3nc(-c4ccccc4OC(F)(F)F)no3)ccc21` [Compound 132, 5-(1-isopropyl-1H-benzo[d][1,2,3]triazol-5-yl)-3-(2-(trifluoro-methoxy)phenyl)-1,2,4-oxadiazole], less than 316 nM.
With `Cc1ncc(-c2nc(-c3ccc4c(c3)nnn4C(C)C)no2)nc1C` [Compound 133, 5-(5,6-dimethylpyrazin-2-yl)-3-(1-isopropyl-1H-benzo[d][1,2,3]triazol-5-yl)-1,2,4-oxadiazole], the EC50 was more than 316 nM.
With `O=C(O)CCn1nnc2cc(-c3noc(-c4ccccc4Br)n3)ccc21` [Compound 134, 3-(5-(5-(2-bromophenyl)-1,2,4-oxadiazol-3-yl)-1H-benzo[d][1,2,3]triazol-1-yl)propanoic acid] the figure was more than 316 nM.
Under `CCc1ncc(-c2noc(-c3ccc4c(c3)nnn4C(C)C)n2)cn1` [Compound 135, 5-[3-(2-ethylpyrimidin-5-yl)-1,2,4-oxadiazol-5-yl]-1-(propan-2-yl)-1H-1,2,3-benzotriazole] stands more than 316 nM; under `COc1cc(C)c(-c2noc(-c3ccc4c(c3)nnn4C(C)C)n2)c(OC)c1` [Compound 136, 5-[3-(2,4-dimethoxy-6-methylphenyl)-1,2,4-oxadiazol-5-yl]-1-(propan-2-yl)-1H-1,2,3-benzotriazole], more than 316 nM.
Under `CCC1(CC)CC(=O)c2cc(-c3nsc(-c4cccnc4)n3)ccc2O1` [Compound 137, 2,2-diethyl-6-(5-(pyridin-3-yl)-1,2,4-thiadiazol-3-yl)chroman-4-one] stands less than 316 nM; under `COc1ccccc1-c1nc(-c2ccc3c(c2)nnn3C(C)C)ns1` [Compound 138, 5-[5-(2-methoxyphenyl)-1,2,4-thiadiazol-3-yl]-1-(propan-2-yl)-1H-1,2,3-benzotriazole], less than 316 nM; under `Cc1ccccc1-c1noc(-c2ccc3c(c2)nnn3CC(C)(C)O)n1` [Compound 139, 2-methyl-1-{5-[3-(2-methylphenyl)-1,2,4-oxadiazol-5-yl]-1H-1,2,3-benzotriazol-1-yl}propan-2-ol], less than 316 nM.
In the case of `Cc1ccsc1-c1noc(-c2ccc3c(c2)nnn3CC(C)(C)O)n1` [Compound 140], the EC50 is less than 316 nM.
With `C=CCNc1ccc(-c2nc(-c3ccc4[nH]ncc4c3)no2)cc1C#N` [Compound 141, 5-(3-(1H-indazol-5-yl)-1,2,4-oxadiazol-5-yl)-2-(allyl-amino)benzonitrile], the EC50 was less than 316 nM.
As for `CCC1(CC)CC(=O)c2cc(-c3nsc(-c4ccc5c(c4)nnn5C(C)C)n3)ccc2O1` [Compound 143, 2,2-diethyl-6-(5-(1-isopropyl-1H-benzo[d][1,2,3]triazol-5-yl)-1,2,4-thiadiazol-3-yl)chroman-4-one], the EC50 is more than 316 nM.
Under `CCC1(CC)CC(=O)c2cc(-c3nc(-c4ccnc(F)c4)no3)ccc2O1` [Compound 146, 2,2-diethyl-6-(3-(2-fluoropyridin-4-yl)-1,2,4-oxadiazol-5-yl)chroman-4-one] stands less than 316 nM; under `C=CCNc1ccc(-c2nc(-c3ccc(NS(C)(=O)=O)cc3)no2)cc1C#N` [Compound 149, N-(4-(5-(4-(allylamino)-3-cyanophenyl)-1,2,4-oxadiazol-3-yl)phenyl) methanesulfonamide], less than 316 nM; under `C=CCNc1ccc(-c2nc(-c3ccc4c(c3)nnn4C(C)C)no2)cc1C#N` [Compound 150, 2-(allylamino)-5-(3-(1-isopropyl-1H-benzo[d][1,2,3]triazol-5-yl)-1,2,4-oxadiazol-5-yl)benzonitrile], less than 316 nM.
With `CCC1(CC)CC(=O)c2cc(-c3nc(-c4ccc(NC)cc4)no3)ccc2O1` [Compound 153, 2,2-diethyl-6-(3-(4-(methylamino)phenyl)-1,2,4-oxadiazol-5-yl)chroman-4-one] the figure was more than 316 nM; with `Cc1cc(-c2nc(-c3ccc4c(c3)nnn4C(C)C)no2)cc(C)n1` [Compound 156, 5-(2,6-dimethyl-pyridin-4-yl)-3-(1-isopropyl-1H-benzo[d][1,2,3]triazol-5-yl)-1,2,4-oxadiazole], less than 316 nM; with `Cc1cc(C)cc(-c2noc(-c3ccc4c(c3)nnn4C3CCCCC3)n2)c1` [Compound 158, 1-cyclohexyl-5-[3-(3,5-dimethylphenyl)-1,2,4-oxadiazol-5-yl]-1H-1,2,3-benzotriazole], more than 316 nM.
For the compound `CC(C)n1nnc2cc(-c3nc(-c4ccc5ccccc5n4)no3)ccc21` [Compound 168, 2-{5-[1-(propan-2-yl)-1H-1,2,3-benzotriazol-5-yl]-1,2,4-oxadiazol-3-yl}quinoline], the EC50 was more than 316 nM.
Turning to `CC(C)n1nnc2cc(-c3nc(-c4ccc(Cl)s4)no3)ccc21` [Compound 170, 5-[3-(5-chlorothiophen-2-yl)-1,2,4-oxadiazol-5-yl]-1-(propan-2-yl)-1H-1,2,3-benzotriazole], the EC50 was more than 316 nM.
In the case of `Cc1ccccc1C(C)c1noc(-c2ccc3c(c2)nnn3C(C)C)n1` (stereo not drawn) [Compound 172, 5-{3-[1-(2-methyl-phenyl)ethyl]-1,2,4-oxadiazol-5-yl}-1-(propan-2-yl)-1H-1,2,3-benzotriazole], the EC50 was more than 316 nM.
Under `COc1ccccc1-c1noc(-c2ccc3c(c2)nnn3C2CC2)n1` [Compound 173, 1-cyclopropyl-5-[3-(2-methoxyphenyl)-1,2,4-oxadiazol-5-yl]-1H-1,2,3-benzotriazole] stands less than 316 nM; under `c1cc(-c2noc(-c3ccc4c(c3)nnn4C3CCCC3)n2)ccn1` [Compound 174, 1-cyclopentyl-5-[3-(pyridin-4-yl)-1,2,4-oxadiazol-5-yl]-1H-1,2,3-benzotriazole], less than 316 nM; under `Cc1ccccc1-c1noc(-c2ccc3c(c2)nnn3C2CCCC2)n1` [Compound 175, 1-cyclopentyl-5-[3-(2-methylphenyl)-1,2,4-oxadiazol-5-yl]-1H-1,2,3-benzotriazole], less than 316 nM.
Under `O=C1CC2(CCCC2)Oc2ccc(-c3nc(-c4ccncc4)no3)cc21` [Compound 176, 6-[3-(pyridin-4-yl)-1,2,4-oxadiazol-5-yl]-3,4-dihydrospiro[1-benzopyran-2,1′-cyclopentane]-4-one] stands more than 316 nM; under `C=CCNc1ccc(-c2nc(-c3ccc4[nH]cnc4c3)no2)cc1C#N` [Compound 177, 5-(3-(1H-benzo[d]imidazol-5-yl)-1,2,4-oxadiazol-5-yl)-2-(allylamino)benzonitrile], less than 316 nM.
Take `CCC1(CC)CC(=O)c2cc(-c3nnc(-c4ccccc4OC)s3)ccc2O1` [Compound 178, 2,2-diethyl-6-(5-(2-methoxyphenyl)-1,3,4-thiadiazol-2-yl)chroman-4-one]: the EC50 was more than 316 nM.
Consider `CCC1(CC)CC(=O)c2cc(-c3nc(-c4ccc(C(N)=O)cc4)no3)ccc2O1` [Compound 179, 4-(5-(2,2-diethyl-4-oxochroman-6-yl)-1,2,4-oxadiazol-3-yl)benzamide], for which the EC50 is less than 316 nM.
Under `CC(C)n1nnc2cc(C(=O)Nc3noc4ccccc34)ccc21` [Compound 181, N-(benzo[d]isoxazol-3-yl)-1-isopropyl-1H-benzo[d][1,2,3]triazole-5-carboxamide] stands more than 316 nM; under `Cc1ccccc1-c1noc(-c2ccc3c(c2)nnn3CC(F)F)n1` [Compound 182, 1-(2,2-difluoroethyl)-5-[3-(2-methylphenyl)-1,2,4-oxadiazol-5-yl]-1H-1,2,3-benzotriazole], less than 316 nM; under `CC(C)n1nnc2cc(-c3nc(-c4ccccc4Br)co3)ccc21` [Compound 183, 5-[4-(2-bromophenyl)-1,3-oxazol-2-yl]-1-(propan-2-yl)-1H-1,2,3-benzotriazole], less than 316 nM.
With `CCC1(CC)CC(=O)c2cc(-c3nc(-c4ccc(C(=O)NC)cc4)no3)ccc2O1` [Compound 185, 4-(5-(2,2-diethyl-4-oxochroman-6-yl)-1,2,4-oxadiazol-3-yl)-N-methylbenzamide] the figure was less than 316 nM; with `COCC1(COC)CC(=O)c2cc(-c3nc(-c4cccnc4)no3)ccc2O1` [Compound 186, 2,2-bis(methoxy-methyl)-6-[3-(pyridin-3-yl)-1,2,4-oxadiazol-5-yl]-3,4-dihydro-2H-1-benzopyran-4-one], more than 316 nM.
Under `CCC1(CC)CC(=O)c2cc(-c3nc(-c4ccccc4O)no3)ccc2O1` [Compound 187, 2,2-diethyl-6-[3-(2-hydroxyphenyl)-1,2,4-oxadiazol-5-yl]chroman-4-one] stands more than 316 nM.

The values are drawn from patent US20230114241A1, “METHODS OF TREATING EPILEPSY USING THE SAME” (Trevena, Inc., priority 2019, published 2023).
